According to patent publication US12594271B2, “Combination therapy for cancer” (Health Research, Inc., priority 2019, dated 2026):
“Also recorded” adds a separate entry of the source.

How the values were obtained:
4T1 tumors cells = assay: 4T1 orthotopic mammary tumor model: tumor growth and spontaneous lung metastases; format: in vivo, mice; details: BRQ 10 mg/kg i.p. daily
Experimental: FIG. 1. […] (A) 4T1 growth in mice treated daily with BRQ (10 mg/kg, i.p.), anti-PD-1 ([…], i.p. at the indicated 3 or 4 times) or both agents. n=5 mice/group/experiment for upper and lower graphs; *P<0.01 against single-agent treatments. B-D, data shown are for analysis of A, upper graph. (B) Spontaneous metastatic lung counts; *P<0.01. Similar patterns seen in the 2nd experiment (avg. #mets): vehicle=12; BRQ=1; αPD-1=5; combo=1. (C) Splenic granulocytic (CD11b^+Ly6C^loLy6G^+) or monocytic (CD11b^+Ly6C^hiLy6G^−) numbers in non-tumor-bearing (NTB) or tumor-bearing mice were converted to a ratio for group-by-group comparison; *P<0.03. (D) Splenic CD3^+ T cell numbers in tumor-bearing mice. (E) Splenic CD8^+ T cells in A (lower graph) were assayed based on differential expression of CD44:naïve ([…]) vs. effector/central memory (hi) phenotypes. *P<0.03. Data reported as a ratio to indicate a rising memory pool. […]
Treatment of Tumor-Bearing Mice Alters Surface Phenotype of Myeloid Cells. […] Female BALB/c or C57BL/6 mice were orthotopically implanted with 4T1 or AT-3 mammary tumor cells, respectively, and were monitored 3 times weekly for tumor growth. […]
Effect of Treatment of Tumor-Bearing Mice with BRQ on the Efficacy of Anti-Tumor Immunotherapy. […] At endpoint, BM cells or spleens were collected and analyzed for the indicated populations by flow cytometry. […]

MDSCs = assay: Phenotype, viability and morphology of in vitro generated MDSC cultures; format: cell-based, mouse
Experimental: In Vitro Development of MDSCs. Unfractionated mouse bone marrow cells were cultured in dishes with recombinant mouse G-CSF and recombinant mouse GM-CSF (40 ng/ml of each cytokine) for 96 hours to produce MDSCs, as described (Marigo et al. Immunity 32:790-802, 2010). After culture, cells were collected and analyzed by flow cytometry for the indicated cell surface markers. Uncultured or fresh bone marrow (BM) cells served as a negative control.
Effect of BRQ Treatment on In Vitro Generated MDSCs. As in FIG. 4, MDSCs were generated in vitro, but now with or without (vehicle) the concurrent addition of brequinar (BRQ) (1 μM) at the start of the culture. After culture, cells were collected and analyzed by flow cytometry for the indicated cell surface markers. Uncultured (fresh) BM cells served as a negative control. Viable cells were enumerated by trypan blue dye exclusion (bottom left panel, % viability; bottom right panel, total viable cells recovered).
Cells Treated with BRQ Appear More Mature Morphologically and Phenotypically. Methods were the same as in FIG. 6. MDSCs were generated in vitro with or without BRQ. Afterwards, cells were collected and analyzed morphologically by Wright-Giemsa staining of cytospin-prepared slides. Left top panel, representative photomicrograph images [(arrows indicate representative immature myeloid (−BRQ) vs. mature (+BRQ) cell types)]; Left bottom panel, the % of each cell type was quantified as follows. Cells were classified into 3 main morphologic cell types, as shown. For the lower panel, 300 cells were analyzed per random field and 3 separate fields were analyzed (totaling 900 cells). The average number of each cell type was determined by dividing by 3, and the data were converted to a percentage within the total population. Using the in vitro assay described previously to produce MDSCs, the CD11b^+Ly6C^lo Ly6G^+ subset (also known as PMN-MDSCs) was analyzed for cell surface CD101 expression by flow cytometry on cultures without BRQ (labeled here as ‘GM-CSF+G-CSF’) or with BRQ. Isotype control staining was included as a negative control for the specificity of CD101 reactivity. Middle panel, representative histogram; right panel, mean fluorescence intensity (MFI) data quantified from 2 separate experiments.

IRF8 = assay: qRT-PCR in Lin- BM cells cultured 2 days; format: cell-based, mouse; details: bone marrow cells cultured with BRQ, normalized to vehicle
Experimental: (§1) FIG. 2. […] (A) MDSCs were produced in vitro from mouse bone marrow cells using GM-CSF and G-CSF±BRQ (1 μM) or ATRA (10 μM) at the start of the 4-day culture. Cells tested for their ability to inhibit T cell proliferation (1:1 ratio), as in FIG. 5. Fresh BM=Uncultured bone marrow cells. (B) Similar to A, except that uridine (200 μM) was added to rescue the effect of BRQ. (C) Expression of IRF8 (upper) or SLFN4 (lower) was analyzed by qRT-PCR in Lin^− BM cells cultured as in A for 2 days. Data normalized to the vehicle.

SLFN4 = assay: qRT-PCR in Lin- BM cells cultured 2 days; format: cell-based, mouse; details: bone marrow cells cultured with BRQ, normalized to vehicle
Experimental: as §1

E0771 = E0771 mammary tumor model: bone marrow multi-spectral flow cytometry; format: in vivo; details: endpoint
Experimental: BRQ Alters the Bone Marrow Myeloid Compartment in Triple Negative Breast Cancer Model. This study was performed in another mammary tumor model, termed E0771. The experimental design is as described in FIG. 12 and bone marrow cells were collected at endpoint, as in FIG. 19 for flow cytometric analysis. Here, BM samples were analyzed by multi-spectral high dimensional flow cytometry using a Cytek Aurora Spectral Flow Cytometer and the data are illustrated as a TSNE plot (i.e, t-distributed Stochastic Neighbor). Circled regions refer to the data of interest.

[1] = BRQ 1 μM, trypan blue dye exclusion
[2] = bone marrow cells cultured with BRQ, morphologic analyses
[3] = cultures with BRQ, Wright-Giemsa staining

Cc1c(-c2ccc(-c3ccccc3F)cc2)nc2ccc(F)cc2c1C(=O)O [BRQ, 6-Fluoro-2-(2′-fluoro-[1,1′-biphenyl]-4-yl)-3-methylquinoline-4-carboxylic acid]
Spontaneous metastatic lung counts (avg. #mets) (4T1 tumors cells; 2nd experiment, anti-PD-1 200 μs i.p. 3 or 4 times, endpoint): 1
4T1 tumor growth (4T1 tumors cells; BALB/c mice, anti-PD-1 200 μg i.p.): little effect on tumor growth; also recorded: only a nominal effect on primary tumor growth
generation of CD11b+Gr-1+ cells (MDSCs; BRQ 1 μM, flow cytometry): did not substantially alter
cell viability (MDSCs; [1]): not significantly altered
number of live cells recovered (MDSCs; [1]): substantially reduced
mature myeloid cells (mainly neutrophils and macrophages) (MDSCs; [2]): corresponding increase in mature myeloid cells
reduction in immature myeloid cells (MDSCs; [2]): 75%
immature cell types (MDSCs; [3]): reduction in immature cell types
proportion of macrophages (MDSCs; [3]): no demonstrable effect
proportion of segmented neutrophils (MDSCs; [3]): increased the proportion of segmented neutrophils
cell surface CD101 expression (MFI) on CD11b+Ly6CloLy6G+ subset (MDSCs; cultures with BRQ, flow cytometry): significantly increased the expression of CD101
IRF8 expression (IRF8): increase in IRF8 expression
SLFN4 expression (SLFN4): reciprocal decrease in SLFN4 expression
frequency of granulocyte progenitors (GPs) in bone marrow (E0771): reduced the frequency of granulocyte progenitors
frequency of monocyte progenitors (MPs) in bone marrow (E0771): increased the frequency of monocyte progenitors
